Results taken from patent US20220168427A1 (Ranok Therapeutics (Hangzhou) Co. Ltd., priority 2019, published 2022).

What was measured:
MV4-11 cells = assay: MV4-11 Cell Cytotoxicity Assay; format: cell-based, human; conditions: human, MV4-11 cells, CCK-8
Description: % Inhibition=100−(D−B)/(S−B)*100%.
S: The absorbance of the maximum (cells with DMSO)
B: The absorbance of the minimum (medium with DMSO)

BRD4 (BD1+BD2) = molecular target: T1, BRD4 (BD1+BD2) (Homo sapiens, UniProt O60885); conditions: read-out: BRD4 Binding Potency
T1 construct: 1.8 μg/ml recombinant BRD4 (BD1+BD2 domains) protein

HSP90α = HSP90α (Homo sapiens, UniProt P07900); assay: HSP90α Binding Fluorescent Polarization (FP) Assay; conditions: competition with FITC-geldanamycin; read-out: HSP90 Binding Potency
Outline: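 Competitive FP assay in which compound displaces FITC-geldanamycin from recombinant HSP90α (28 μg/ml before addition) in BSA-containing buffer. Compounds in 3-fold series from 40 μM to 2.0 nM (dilution-plate concentrations), tested in duplicate. Readings after 30, 60 and 120 min at 25 °C; background-subtracted mP fitted to four-parameter log[inhibitor]-response curve.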

Structure (SMILES) | IC50 at 72 h (MV4-11 cells) [nM] | IC50 (BRD4 (BD1+BD2)) [nM] | IC50 (HSP90α) [nM]
Cc1sc2c(c1C)C(c1ccc(Cl)cc1)=N[C@@H](CC(=O)N1CCC(CN3CCN(Cc4ccc(-n5c(C(=O)NCCN6CCCCC6)nnc5-c5cc(C(C)C)c(O)cc5O)cc4)CC3)CC1)c1nnc(C)n1-2 [Compound 107, (S)-4-(4-((4-((1-(2-(4-(4-chlorophenyl)-2,3,9-trimethyl-6H-thieno[3,2-f][1,2,4]triazolo[4,3-a][1,4]diazepin-6-yl)acetyl)piperidin-4-yl)methyl)piperazin-1-yl)methyl)phenyl)-5-(2,4-dihydroxy-5-isopropylphenyl)-N-(2-(piperidin-1-yl)ethyl)-4H-1,2,4-triazole-3-carboxamide, trifluoroacetic acid] | < 100 | < 100 | 100 to 1000
CCN(Cc1ccc(OCCCNC(=O)C[C@@H]2N=C(c3ccc(Cl)cc3)c3c(sc(C)c3C)-n3c(C)nnc32)cc1)Cc1ccc(-n2c(C(=O)NCC(F)(F)F)nnc2-c2cc(C(C)C)c(O)cc2O)cc1 [Compound 102, (S)-4-(4-(((4-(3-(2-(4-(4-chlorophenyl)-2,3,9-trimethyl-6H-thieno[3,2-f][1,2,4]triazolo[4,3-a][1,4]diazepin-6-yl)acetamido)propoxy)benzyl)(ethyl)amino)methyl)phenyl)-5-(2,4-dihydroxy-5-isopropylphenyl)-N-(2,2,2-trifluoroethyl)-4H-1,2,4-triazole-3-carboxamide, trifluoroacetic acid] | < 100 | > 1000 | > 1000
Cc1sc2c(c1C)C(c1ccc(Cl)cc1)=N[C@@H](CC(=O)N1CCC(CCN3CCC(Cc4ccc(-n5c(O)nnc5-c5cc(C(C)C)c(O)cc5O)cc4)CC3)CC1)c1nnc(C)n1-2 [Compound 80, (S)-2-(4-(4-chlorophenyl)-2,3,9-trimethyl-6H-thieno[3,2-f][1,2,4]triazolo[4,3-a][1,4]diazepin-6-yl)-1-(4-(2-(4-(4-(3-(2,4-dihydroxy-5-isopropylphenyl)-5-hydroxy-4H-1,2,4-triazol-4-yl)benzyl)piperidin-1-yl)ethyl)piperidin-1-yl)ethan-1-one, trifluoroacetic acid] | < 100 | < 100 | 100 to 1000
Cc1sc2c(c1C)C(c1ccc(Cl)cc1)=N[C@@H](CC(=O)N[C@H](C)c1cccc(CN3CCC(Cc4ccc(-n5c(C(=O)NCC(F)(F)F)nnc5-c5cc(C(C)C)c(O)cc5O)cc4)CC3)c1)c1nnc(C)n1-2 [Compound 97, 4-(4-((1-(3-((R)-1-(2-((S)-4-(4-chlorophenyl)-2,3,9-trimethyl-6H-thieno[3,2-f][1,2,4]triazolo[4,3-a][1,4]diazepin-6-yl)acetamido)ethyl)benzyl)piperidin-4-yl)methyl)phenyl)-5-(2,4-dihydroxy-5-isopropylphenyl)-N-(2,2,2-trifluoroethyl)-4H-1,2,4-triazole-3-carboxamide, trifluoroacetic acid] | < 100 | < 100 | 100 to 1000
Cc1sc2c(c1C)C(c1ccc(Cl)cc1)=N[C@@H](CC(=O)N1CCC(CN3CCC(Cc4ccc(-n5c(O)nnc5-c5cc(C(C)C)c(O)cc5O)cc4)CC3)CC1)c1nnc(C)n1-2 [Compound 94, (S)-2-(4-(4-chlorophenyl)-2,3,9-trimethyl-6H-thieno[3,2-f][1,2,4]triazolo[4,3-a][1,4]diazepin-6-yl)-1-(4-((4-(4-(3-(2,4-dihydroxy-5-isopropylphenyl)-5-hydroxy-4H-1,2,4-triazol-4-yl)benzyl)piperidin-1-yl)methyl)piperidin-1-yl)ethan-1-one, trifluoroacetic acid] | < 100 | 100 to 1000 | < 100
Cc1sc2c(c1C)C(c1ccc(Cl)cc1)=N[C@@H](CC(=O)NCCOc1cccc(CN(C)Cc3ccc(-n4c(O)nnc4-c4cc(C(C)C)c(O)cc4O)cc3)c1)c1nnc(C)n1-2 [Compound 50, 2-((6S)-4-(4-chlorophenyl)-2,3,9-trimethyl-6H-thieno[3,2-f][1,2,4]triazolo[4,3-a][1,4]diazepin-6-yl)-N-(2-(3-(((4-(3-(2,4-dihydroxy-5-isopropylphenyl)-5-hydroxy-4H-1,2,4-triazol-4-yl)benzyl)(methyl)amino)methyl)phenoxy)ethyl)acetamide, trifluoroacetic acid, trifluoroacetic acid, trifluoroacetic acid, trifluoroacetic …] | < 100 | > 1000 | 100 to 1000
Cc1sc2c(c1C)C(c1ccc(Cl)cc1)=N[C@@H](CC(=O)N(C)[C@H](C)c1ccc(CN3CCC(Cc4ccc(-n5c(O)nnc5-c5cc(C(C)C)c(O)cc5O)cc4)CC3)cc1)c1nnc(C)n1-2 [Compound 93, 2-((S)-4-(4-chlorophenyl)-2,3,9-trimethyl-6H-thieno[3,2-f][1,2,4]triazolo[4,3-a][1,4]diazepin-6-yl)-N—((R)-1-(4-((4-(4-(3-(2,4-dihydroxy-5-isopropylphenyl)-5-hydroxy-4H-1,2,4-triazol-4-yl)benzyl)piperidin-1-yl)methyl)phenyl)ethyl)-N-methylacetamide, trifluoroacetic acid] | < 100 | 100 to 1000 | 100 to 1000
CCn1c(=O)/c(=C2\Sc3ccccc3N2C)s/c1=C\c1cccc[n+]1CCCNC(=O)C[C@@H]1N=C(c2ccc(Cl)cc2)c2c(sc(C)c2C)-n2c(C)nnc21 [Compound 7, 1-(3-(2-((6S)-4-(4-chlorophenyl)-2,3,9-trimethyl-6H-thieno[3,2-f][1,2,4]triazolo[4,3-a][1,4]diazepin-6-yl)acetamido)propyl)-2-((Z)-((E)-3-ethyl-5-(3-methylbenzo[d]thiazol-2(3H)-ylidene)-4-oxothiazolidin-2-ylidene)methyl)pyridin-1-ium chloride] | 100 to 1000 | < 100 | > 1000
Cc1sc2c(c1C)C(c1ccc(Cl)cc1)=N[C@@H](CC(=O)N1CCC(CN3CCN(Cc4ccc(-n5c(C(=O)NCC(F)(F)F)nnc5-c5cc(C(C)C)c(O)cc5O)cc4)CC3)CC1)c1nnc(C)n1-2 [Compound 13, 4-(4-((4-((1-(2-((6S)-4-(4-chlorophenyl)-2,3,9-trimethyl-6H-thieno[3,2-f][1,2,4]triazolo[4,3-a][1,4]diazepin-6-yl)acetyl)piperidin-4-yl)methyl)piperazin-1-yl)methyl)phenyl)-5-(2,4-dihydroxy-5-isopropylphenyl)-N-(2,2,2-trifluoroethyl)-4H-1,2,4-triazole-3-carboxamide] | < 100 | 100 to 1000 | 100 to 1000
CCCc1cc(-c2nnc(O)n2-c2ccc(CN3CCN(CC4CCN(C(=O)C[C@@H]5N=C(c6ccc(Cl)cc6)c6c(sc(C)c6C)-n6c(C)nnc65)CC4)CC3)cc2)c(O)cc1O [Compound 11, (S)-2-(4-(4-chlorophenyl)-2,3,9-trimethyl-6H-thieno[3,2-f][1,2,4]triazolo[4,3-a][1,4]diazepin-6-yl)-1-(4-((4-(4-(3-(2,4-dihydroxy-5-propylphenyl)-5-hydroxy-4H-1,2,4-triazol-4-yl)benzyl)piperazin-1-yl)methyl)piperidin-1-yl)ethan-1-one, trifluoroacetic acid] | < 100 | 100 to 1000 | < 100
Cc1cc(C(=O)N2Cc3ccc(CN4CCN(C(=O)C[C@@H]5N=C(c6ccc(Cl)cc6)c6c(sc(C)c6C)-n6c(C)nnc65)CC4)cc3C2)c(O)cc1O [Compound 144, (S)-2-(4-(4-chlorophenyl)-2,3,9-trimethyl-6H-thieno[3,2-f][1,2,4]triazolo[4,3-a][1,4]diazepin-6-yl)-1-(4-((2-(2,4-dihydroxy-5-methylbenzoyl)isoindolin-5-yl)methyl)piperazin-1-yl)ethan-1-one] | 100 to 1000 | 100 to 1000 | 100 to 1000
Cc1sc2c(c1C)C(c1ccc(Cl)cc1)=N[C@@H](CC(=O)N1CCC(CN3CCN(Cc4ccc(-n5c(C(=O)NC(C)C)nnc5-c5ccc(O)cc5O)cc4)CC3)CC1)c1nnc(C)n1-2 [Compound 119, (S)-4-(4-((4-((1-(2-(4-(4-chlorophenyl)-2,3,9-trimethyl-6H-thieno[3,2-f][1,2,4]triazolo[4,3-a][1,4]diazepin-6-yl)acetyl)piperidin-4-yl)methyl)piperazin-1-yl)methyl)phenyl)-5-(2,4-dihydroxyphenyl)-N-isopropyl-4H-1,2,4-triazole-3-carboxamide, trifluoroacetic acid] | < 100 | < 100 | 100 to 1000
CCc1cc(-c2nnc(O)n2-c2ccc(CN3CCC(C(=O)N4CCC(CNCC[C@@H]5N=C(c6ccc(Cl)cc6)c6c(sc(C)c6C)-n6c(C)nnc65)C4)CC3)cc2)c(O)cc1O (stereo partly drawn) [Compound 67, (3-(((2-((6S)-4-(4-chlorophenyl)-2,3,9-trimethyl-6H-thieno[3,2-f][1,2,4]triazolo[4,3-a][1,4]diazepin-6-yl)ethyl)amino)methyl)pyrrolidin-1-yl)(1-(4-(3-(5-ethyl-2,4-dihydroxyphenyl)-5-hydroxy-4H-1,2,4-triazol-4-yl)benzyl)piperidin-4-yl)methanone, trifluoroacetic acid] | 100 to 1000 | 100 to 1000 | 100 to 1000
Cc1sc2c(c1C)C(c1ccc(Cl)cc1)=N[C@@H](CC(=O)N[C@H](C)c1cccc(CN3CCC(Cc4ccc(-n5c(O)nnc5-c5cc(C(C)C)c(O)cc5O)cc4)CC3)c1)c1nnc(C)n1-2 [Compound 81, 2-((S)-4-(4-chlorophenyl)-2,3,9-trimethyl-6H-thieno[3,2-f][1,2,4]triazolo[4,3-a][1,4]diazepin-6-yl)-N—((R)-1-(3-((4-(4-(3-(2,4-dihydroxy-5-isopropylphenyl)-5-hydroxy-4H-1,2,4-triazol-4-yl)benzyl)piperidin-1-yl)methyl)phenyl)ethyl)acetamide, trifluoroacetic acid] | < 100 | 100 to 1000 | 100 to 1000
